By IC50 is commonly meant the concentration that gives 50% inhibition. A lower IC50 goes with inhibition by little substance.

Molecules are shown by their SMILES. Bounds are passed on as bounds.

The record followed here is ChEMBL document CHEMBL1132432, “Urea-PETT compounds as a new class of HIV-1 reverse transcriptase inhibitors. 3. Synthesis and further structure-activity relationship studies of PETT analogues” (J Med Chem, 1999).

The target in assay [1] is Human immunodeficiency virus type 1 reverse transcriptase (Human immunodeficiency virus 1) (UniProt Q72547). As to conditions: MT4.
Description: Inhibitory activity against HIV-1 Asn 103 mutant in MT-4 cells.
Assay [2] has the same target. Particulars: MT4. The source holds these as a separate data set.
Description: Inhibitory activity against HIV-1 Cys 181 mutant in MT-4 cells.
Assay [3] shares this target. Particulars: MT4. The source holds these as a separate data set.
Description: Inhibition of wild type HIV-1 in MT-4 cell culture (human T cell line)
Assay [4] has as its target T1, Human immunodeficiency virus type 1 reverse transcriptase (Human immunodeficiency virus 1, UniProt Q72547). Briefly: HIV-1 reverse transcriptase inhibitory activity against Ile 100 mutant using (poly)rC600*(oligo)dGT as template primer.
Assay [5] deals with T1, Human immunodeficiency virus type 1 reverse transcriptase. The experiment in a line: HIV-1 reverse transcriptase inhibitory activity against Asn103 mutant using (poly)rC600*(oligo)dGT as template primer.
Assay [6] shares this target. Briefly: HIV-1 reverse transcriptase inhibitory activity against Cys181 mutant using (poly)rC600*(oligo)dGT as template primer.
Assay [7] deals with Human immunodeficiency virus type 1 reverse transcriptase (Human immunodeficiency virus 1) (UniProt Q72547). Particulars: MT4. The source holds these as a separate data set.
Description: Inhibitory activity against HIV-1 Ile 100 mutant in MT-4 cells.
Assay [8] has as its target T1, Human immunodeficiency virus type 1 reverse transcriptase. The experiment in a line: HIV-1 reverse transcriptase inhibitory activity against Wild Type Reverse transcriptase using (poly)rC600*(oligo)dGT as template primer.
The next assay relates to MT4. Briefly: Inhibitory activity against HIV-1 Wild Type in MT-4 cell culture (human T-cell line with 50% human AB serum). It counts as functional. Particulars: read-out: ED50 (the source's name).

For `CCOc1ccc(F)c(C2CC2NC(=O)Nc2ccc(Cl)cn2)c1F` (stereo not drawn), the ED50 in assay [1] is 544 nM; in assay [2] it was 163 nM; in [3], 31 nM; in assay [7], 816 nM. Also, the IC50 came out at 81 nM in assay [4], 473 nM in [5], 14 nM in [6] and 1.6 nM in [8].
In the case of `CCOc1ccc(F)c(CCNC(=O)Nc2ccc(Br)cn2)c1Cl`, the ED50 in [1] was over 5000 nM; in assay [2], over 5000 nM; in [3], 70 nM; in [7], over 10000 nM. For the same compound, the results for the IC50 in [4], in assay [5] and in assay [6] were 1680 nM, over 2400 nM and 240 nM, respectively.
Regarding `COc1c(C(C)=O)ccc(F)c1CCNC(=O)Nc1ccc(Cl)cn1`, the ED50 in assay [1] was over 5000 nM; in [2], over 5000 nM; in [3], 819 nM; in assay [7], over 5000 nM. Further, the IC50 in [4] was 26200 nM; in assay [5], over 2700 nM; in assay [6], 12700 nM; in [8], 224 nM.
Turning to `CCOc1ccc(Cl)c(C2CC2NC(=O)Nc2cc(Cl)cnn2)c1F` (stereo not drawn), the ED50 was over 5000 nM in assay [1], over 5000 nM in assay [2], 18 nM in assay [3] and over 5000 nM in assay [7]. Moreover, the half-inhibitory concentration (IC50) was 1000 nM in assay [4], over 2600 nM in assay [5], 1000 nM in assay [6] and 5.2 nM in assay [8].
Turning to `CCC(=O)c1ccc(F)c(C2CC2NC(=O)Nc2ccc(Br)cn2)c1O` (stereo in doubt; 18) [listing 1 of 2 here], the ED50 in [1] was found to be 358 nM; in assay [2] it was 95 nM; in assay [3] it was 12 nM; in assay [7], 53 nM.
Regarding `CCC(=O)c1ccc(F)c(C2CC2NC(=O)Nc2ccc(Cl)cn2)c1O` (stereo in doubt; 20) [listing 1 of 2 here], the ED50 was determined as 470 nM in assay [1], 100 nM in [2], 13 nM in [3] and 75 nM in assay [7].
For the compound `CC(=O)c1ccc(F)c(C2CC2NC(=O)Nc2ccc(C#N)cn2)c1O` (stereo not drawn), the ED50 in assay [1] was determined as 104 nM; in assay [2] it was 230 nM; in [3] it was 8 nM; in assay [7] it was 40 nM. The IC50 in [4] stood at 13 nM; in assay [5] it was 98 nM; in assay [6] it was 16 nM; in assay [8], 5.3 nM.
Regarding `COc1ccc2c(c1)N(C(=O)OC(C)C)C(CSC)C(S)=N2` (stereo not drawn), the ED50 was 500 nM in [1], 73 nM in assay [2], 9 nM in [3] and 72 nM in assay [7]. Further, the IC50 in assay [4] came to 9 nM; in assay [5], 56 nM; in assay [6], 9 nM; in assay [8], 8 nM. In addition, the EC50 with MT4 (Homo sapiens, MT4) was determined as 320 nM.
For `CC(C)Nc1cccnc1N1CCN(C(=O)c2cc3cc(NS(C)(=O)=O)ccc3[nH]2)CC1` [DELAVIRDINE], in the assay with MT4 (Homo sapiens, MT4), the EC50 was found to be 320 nM.
Turning to `CCOc1ccc(F)c(C2CC2NC(=O)Nc2ccc(C#N)cn2)c1Cl` (stereo not drawn), the ED50 was over 5000 nM in assay [1], 270 nM in [2], 8 nM in assay [3] and 234 nM in assay [7]. The IC50 was 200 nM in assay [4], 183 nM in assay [5], 130 nM in assay [6] and 4.3 nM in [8].
Regarding `CCC(=O)c1ccc(F)c(C2CC2NC(=O)Nc2ccc(Cl)cn2)c1O` (stereo in doubt; 20) [listing 2 of 2 here], the IC50 in assay [4] was 14 nM; in [5] it was 77 nM; in assay [6], 4 nM; in [8] it was 2.7 nM. Besides, in the assay with MT4, the EC50 was 80 nM.
Regarding `CN(C)c1ccc(F)c(CCNC(=O)Nc2ccc(Br)cn2)c1F`, the ED50 in assay [1] is over 20000 nM; in assay [2] it was over 20000 nM; in assay [3], 500 nM; in [7], over 20000 nM. Moreover, the IC50 in [4] is over 2500 nM; in assay [5] it was over 2500 nM; in [6], 1500 nM.
As for `CCC(=O)c1ccc(F)c(C2CC2NC(=O)Nc2ccc(Cl)cn2)c1O` (stereo in doubt; 19) [listing 1 of 2 here], the ED50 in [1] turned out to be 200 nM; in assay [2], 100 nM; in assay [3] it was 9 nM; in assay [7], 100 nM.
Turning to `CCC(=O)c1ccc(F)c(C2CC2NC(=O)Nc2ccc(Br)cn2)c1O` (stereo in doubt; 17) [listing 1 of 2 here], the ED50 in assay [1] worked out at 80 nM; in assay [2], 69 nM; in assay [3], 8 nM; in assay [7] it was 100 nM.
In the case of `CCC(=O)c1ccc(F)c(C2CC2NC(=O)Nc2ccc(Br)cn2)c1O` (stereo in doubt; 18) [listing 2 of 2 here], the IC50 in [4] came to 14 nM; in assay [5] it was 41 nM; in assay [6], 10 nM; in assay [8], 4.8 nM. Further, the EC50 in the assay with MT4 was found to be 56 nM.
On to `CCC(=O)c1ccc(F)c(C2CC2NC(=O)Nc2ccc(C#N)cn2)c1O` (stereo not drawn), for which the ED50 stood at 137 nM in [1], 46 nM in assay [2], 3 nM in assay [3] and 69 nM in assay [7]. Besides, the IC50 in assay [4] was 32 nM; in assay [5] it was 97 nM; in assay [6] it was 16 nM; in assay [8] it was 6.8 nM.
Regarding `COc1ccc(C(C)=O)c(F)c1CCNC(=O)Nc1ccc(Cl)cn1`, the ED50 in assay [1] is 3280 nM; in assay [2] it was over 20000 nM; in assay [3], 273 nM; in assay [7], over 20000 nM. For the same compound, the IC50 in [4] is 11200 nM; in assay [5], over 2700 nM; in [6], 10100 nM; in assay [8], 109 nM.
As to `Cc1ccnc2c1NC(=O)c1cccnc1N2C1CC1` [NEVIRAPINE], in the assay on MT4 (Homo sapiens, MT4), the EC50 was over 5000 nM.
Take `CCOc1ccc(Cl)c(C2CC2NC(=O)Nc2ccc(Cl)cn2)c1F` (stereo not drawn): the ED50 turned out to be 780 nM in [1], 104 nM in assay [2], 9 nM in assay [3] and 139 nM in assay [7]. In addition, the IC50 in assay [4] turned out to be 52 nM; in [5], 237 nM; in assay [6], 21 nM; in assay [8] it was 1.3 nM.
Take `O=C1Nc2ccc(Cl)cc2[C@@](C#CC2CC2)(C(F)(F)F)O1` [EFAVIRENZ]: the EC50 in the assay with MT4 (Homo sapiens, MT4) was found to be 50 nM.
In the case of `CC(=O)c1ccc(F)c(C2CC2NC(=O)Nc2ccc(Br)cn2)c1O` (stereo not drawn), the ED50 in assay [1] came out at 561 nM; in [2], 113 nM; in [3] it was 21 nM; in assay [7], 50 nM. The IC50 worked out at 18 nM in [4], 70 nM in assay [5], 8 nM in assay [6] and 3.5 nM in assay [8].
With `CCOc1ccc(Cl)c(C2CC2NC(=O)Nc2ccc(C#N)cn2)c1F` (stereo not drawn), the ED50 in assay [1] is 400 nM; in assay [2], 200 nM; in assay [3] it was 4 nM; in [7], 53 nM. Moreover, the IC50 in [4] is 27 nM; in assay [5] it was 192 nM; in [6] it was 20 nM; in [8] it was 2.7 nM.
`CCC(=O)c1ccc(F)c(C2CC2NC(=O)Nc2ccc(Cl)cn2)c1O` (stereo in doubt; 19) [listing 2 of 2 here]: the IC50 in assay [4] is 115 nM; in assay [5], 82 nM; in assay [6] it was 19 nM; in [8] it was 3.2 nM. Besides, in the assay on MT4 (Homo sapiens, MT4), the EC50 was determined as 51 nM.
Consider `CCOc1ccc(F)c(C2CC2NC(=O)Nc2cc(Cl)cnn2)c1Cl` (stereo not drawn), for which the ED50 in assay [1] is over 5000 nM; in [2] it was 2300 nM; in assay [3], 78 nM; in assay [7], 4400 nM. For the same compound, the IC50 in assay [4] was 140 nM; in assay [5], over 2600 nM; in [6] it was 260 nM; in assay [8], 16 nM.
On to `O=C(Nc1ccc(Cl)cn1)NC1CC1c1c(F)ccc(O)c1Cl` (stereo not drawn), for which the ED50 in assay [1] is over 5000 nM; in assay [2] it was over 5000 nM; in assay [3], 110 nM; in assay [7], over 5000 nM. Besides, the IC50 in assay [4] is 4100 nM; in [5] it was over 2700 nM; in assay [6], 4300 nM; in assay [8], 135 nM.
Consider `COc1ccc(OC)c(CCNC(=O)Nc2ccc(Cl)cn2)c1F`, for which the ED50 is 1130 nM in [1], over 5000 nM in assay [2], 28 nM in [3] and 3800 nM in assay [7]. The IC50 in assay [4] was 140 nM; in assay [5], 224 nM; in [6], 140 nM.
In the case of `CCC(=O)c1ccc(F)c(C2CC2NC(=O)Nc2ccc(Cl)cn2)c1O` (stereo in doubt; 13) [listing 1 of 2 here], the IC50 was 76 nM in assay [4], 57 nM in [5], 51 nM in [6] and 9 nM in assay [8].
For the compound `CCC(=O)c1ccc(F)c(C2CC2NC(=O)Nc2ccc(Br)cn2)c1O` (stereo in doubt; 17) [listing 2 of 2 here], the IC50 in assay [4] is 171 nM; in assay [5], 83 nM; in assay [6], 16 nM; in assay [8], 3.8 nM. Moreover, the EC50 in the assay with MT4 (Homo sapiens, MT4) turned out to be 58 nM.
On to `CCC(=O)c1ccc(F)c(C2CC2NC(=O)Nc2ccc(Cl)cn2)c1O` (stereo in doubt; 13) [listing 2 of 2 here], for which the ED50 in assay [1] was 350 nM; in assay [2], 340 nM; in [3], 27 nM; in assay [7], 220 nM.
